# From PubChem BioAssay (NCI)
#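 Cells were grown in 96-well plates and exposed to each compound for 48 hours at five concentrations; endpoints were interpolated linearly between bracketing concentrations, or set to the highest concentration if not reached. TGI: concentration producing complete growth inhibition.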
# Legend:
# Experiment in all cases: DTP human tumour cell line panel, 48 h
# OVCAR-8 ovarian = test system: OVCAR-8 ovarian
# HCT-116 colon = test system: HCT-116 colon
# U251 CNS = test system: U251 CNS
# SK-OV-3 ovarian = test system: SK-OV-3 ovarian
# OVCAR-3 ovarian = test system: OVCAR-3 ovarian
# COLO 205 colon = test system: COLO 205 colon
# HOP-62 NSCLC = test system: HOP-62 NSCLC
# OVCAR-4 ovarian = test system: OVCAR-4 ovarian
# RXF 393 renal = test system: RXF 393 renal
# IGROV1 ovarian = test system: IGROV1 ovarian
# CCRF-CEM leukemia = test system: CCRF-CEM leukemia
# MALME-3M melanoma = test system: MALME-3M melanoma
# MOLT-4 leukemia = test system: MOLT-4 leukemia
# NCI-H522 lung = test system: NCI-H522 lung
# KM12 colon = test system: KM12 colon
# SK-MEL-28 melanoma = test system: SK-MEL-28 melanoma
# SNB-75 CNS = test system: SNB-75 CNS
# TK-10 renal = test system: TK-10 renal
# CAKI-1 renal = test system: CAKI-1 renal
# SR leukemia = test system: SR leukemia
SMILES,TGI (OVCAR-8 ovarian) [µM],TGI (HCT-116 colon) [µM],TGI (U251 CNS) [µM],TGI (SK-OV-3 ovarian) [µM],TGI (OVCAR-3 ovarian) [µM],TGI (COLO 205 colon) [µM],TGI (HOP-62 NSCLC) [µM],TGI (OVCAR-4 ovarian) [µM],TGI (RXF 393 renal) [µM],TGI (IGROV1 ovarian) [µM],TGI (CCRF-CEM leukemia) [µM],TGI (MALME-3M melanoma) [µM],TGI (MOLT-4 leukemia) [µM],TGI (NCI-H522 lung) [µM],TGI (KM12 colon) [µM],TGI (SK-MEL-28 melanoma) [µM],TGI (SNB-75 CNS) [µM],TGI (TK-10 renal) [µM],TGI (CAKI-1 renal) [µM],TGI (SR leukemia) [µM]
CCCCCCSc1nc(N)nc2nc[nH]c12,> 100,> 100,> 100,80.8,> 100,> 100,> 100,> 100,> 93,> 100,> 100,> 100,> 100,40.9,> 100,> 100,71.7,–,–,–
CCN1c2ccccc2NC(=S)c2c1n[nH]c2-c1ccccc1,> 100,> 100,50.1,> 100,> 100,> 100,–,> 100,> 100,> 100,49.4,–,38.2,52.8,91.1,> 100,> 100,> 100,> 100,67.3
O=C1CC(/C=C/c2ccco2)=C(O)C1=O,30,30.4,28.6,54.5,27.1,29.2,9.07,27.3,21.7,24.5,8.68,23.9,60.8,31.7,27.6,48.3,32.9,44.2,34.6,37.2
CN(C)C(=O)Oc1c(Br)cc(Br)cc1C(=O)OCc1ccccc1,> 100,29,56.2,> 100,48,34,> 71.2,> 100,> 75.6,> 100,68.3,55.3,44.3,> 100,75.9,97.3,97,–,68.6,–
CC1(C)OC[C@H](C(=N)OCc2ccccc2)O1,> 100,> 100,> 100,> 100,> 100,> 100,> 100,> 100,> 100,> 100,> 100,> 100,> 100,> 100,> 100,> 100,> 100,> 100,> 100,> 100
CCOC(=O)c1nc2ccc(OC)cc2c2c1Cc1ccccc1-2,> 100,> 100,> 100,–,> 100,> 100,> 100,> 100,71.6,> 100,–,> 100,> 100,> 100,> 100,> 100,> 100,> 100,> 100,> 100
C/C(=N\Nc1nc2cc(Cl)ccc2s1)c1ccccn1,> 40.4,> 100,6.57,33.6,7.11,> 60.4,11.1,> 100,–,–,> 75.4,> 25.6,> 100,> 41.1,> 84.8,> 27.5,31.3,> 100,46,> 100
COC1/C=C/C=C(/C)Cc2cc(O)c(Cl)c(c2)N(C)C(=O)CC(OC(=O)C(C)C)C2(C)OC2C(C)C2CC1(O)NC(=O)O2 (configuration not stated),> 100,> 100,> 43.9,> 100,> 100,0.0104,> 100,< 0.01,> 100,> 100,> 100,> 100,> 100,< 0.01,–,–,2.08,> 65.2,> 100,> 55.4
